Experimental data as given in publication PMC9025336 (Antibiotics, 2022).
Converted amounts (≈) assume the structure as drawn. Peptide text beside a SMILES is read from it. * marks the point of attachment. Orn(α-tetramethylguanidino) = CN(C)C(=N[C@@H](CCCN)C(=O)*)N(C)C

Key:
[1] = system: 70S ribosome extract of E. coli BW25113; assay: Fluorescence polarization, Kd of cf-labeled peptides; assay type: binding, Escherichia coli; conditions: determined for the cf-labeled peptide; BW25113 ribosome extract; 28 °C, 90 min; 95% confidence interval in brackets; triplicate on at least two days; read-out: Kd, BW
Description: (§1) E. coli BW25113 and E. coli Rosetta pLysS were cultivated in LB medium and harvested at an OD600 of ~4 by centrifugation (5000× g, 30 min, 4 °C). The cell pellets were washed by resuspension in ribosome preparation buffer (20 mmol/L Hepes-KOH, 6 mmol/L MgCl2, 30 mmol/L NH4Cl, pH 7.6, 4°C) and subsequent centrifugation (5000× g, 30 min, 4 °C). Cell pellets were suspended in ribosome preparation buffer ([…]) containing freshly added 2-mercapotethanol (4 mmol/L). Lysozyme was added to the resuspended cells and incubated on ice for 30 min. The cell suspension was disrupted six times using a FastPrep-24^TM 5G instrument (MP Biomedicals, Solon, OH, USA) with BigPrep 50 mL setting (40 s, 4.0 m/s), incubated with DNase I (5 mL/L) on ice for one hour and centrifuged (16,000× g, 30 min, 4 °C). The cell debris was removed from the supernatant by centrifugation (32,000× g, 60 min, 4 °C), and the supernatant was centrifuged again (165,000× g, 17 h, 4 °C). The pellet was resuspended in ribosome preparation buffer (0.1 mL per g cell pellet) to obtain the 70S ribosome extract and stored at −80 °C. The ribosome concentration was estimated by recording the absorbance at 260 nm (1 AU for a ribosome concentration of 28 nmol/L). The molecular weight of the 70S E. coli ribosome was assumed to be 2.3 MDa.
Kd was determined using a ribosome extract and cf-labeled peptides in ribosome preparation buffer. Briefly, black 384-well plates (flat bottom, Greiner Bio-One GmbH) were blocked with casein (0.5%, w/v) in phosphate buffer containing 0.05% (v/v) Tween 20 at 4 °C overnight and washed three times with phosphate buffer. A 2-fold dilution series of the ribosome extract (20 μL per well) in ribosome preparation buffer was prepared in a black 384-well plate (23 dilution steps). The cf-labeled peptide was dissolved in ribosome preparation buffer (20 μL, 40 nmol/L), added to each well, and incubated at 28 ± 1 °C. After 90 min, the fluorescence polarization was measured on a PARADIGMTM microplate reader (Beckman Coulter, Salzburg, Austria) in the top read position (λexc = 485 nm, λem = 535 nm) in triplicate on at least two different days. Data were fitted to a nonlinear, dose–response logistical transition equation [y= y0 + a/(1 + (x/x0)b)] using the Levenberg–Marquardt algorithm, with dissociation constants (Kd) represented by the x0 coefficients (GraphPad Prism for Windows v. 5.02, San Diego, CA, USA).

[2] = system: E. coli Rosetta; assay: Uptake of cf-labeled PrAMPs; assay type: cell-based, Escherichia coli
Description: Bacteria were grown in 25% MHBII medium overnight, diluted fourfold with fresh medium, and incubated to obtain an OD600 of ~1. The cultures were adjusted to an OD600 of 1, and cf-labeled peptide was added to achieve a final concentration of 23 µmol/L (~64 µg/mL). After 0 min, 90 min, and 180 min, two aliquots (300 µL) of the culture were transferred to two tubes. One tube was immediately stored on ice in the dark. The second sample was centrifuged (10,000× g, 4 °C, 3 min), and the supernatant was transferred to a fresh tube and stored on ice in the dark. The pellet was washed with ice cold PBS (300 µL) and centrifuged (10,000× g, 4 °C, 3 min), and the supernatant was transferred into a fresh tube. Both the supernatant and the pellet resuspended in 300 µL ice cold PBS were stored on ice in the dark. After 180 min, an aliquot of the unprocessed sample (100 µL) was transferred to a translucent 96-well plate, and the absorbance was measured at 600 nm. Aliquots (100 µL) of the original cell culture, supernatants, wash solutions, and resuspended pellets were transferred into black 96-well plates to measure the fluorescence in a PARADIGM^TM microplate reader in the top read position (λexc = 485 nm, λem = 535 nm). Experiments were performed three times on different days. The relative fluorescence units were normalized to the measured OD600 values of the cell culture.

[3] = system: E. coli BW25113 ΔsbmA +psbmA_A31G/G219T; assay type: cell-based, Escherichia coli
Description: (§2) The minimal inhibitory concentrations (MIC) were determined at least twice in triplicate using a liquid broth microdilution assay in sterile 96-well plates and a total volume of 100 μL per well. Aqueous peptide solutions were serially 2-fold diluted in 25% MHBII or 33% TSB medium in a volume of 50 µL. An overnight culture was diluted in 25% MHBII or 33% TSB medium to 1.5 × 10^7 CFU/mL, and an aliquot of 50 μL was added to each well. The final cell count in each well was 7.5 × 10^6 CFU/mL. The plates were incubated at 37 °C for 20 ± 2 h. The turbidity of each well was measured at a wavelength of 600 nm. The MIC was defined as the lowest peptide concentration where the turbidity was identical to medium only.

[4] = molecular target: BW25113 ribosome extract, ribosomal binding site of Api137; assay: Fluorescence polarization competition against cf-Api137 (Ki); parameters: species or system Escherichia coli; conditions: unlabeled PrAMP against cf-labeled Api137, calculated from IC50, 95% confidence interval in brackets
Description: as §1
Ki was determined for ribosome extracts using cf-labeled and unlabeled peptides in ribosome preparation buffer. Black 384-well plates were prepared as described above. Unlabeled peptides or antibiotics (20 µL, 656 µmol/L) were added and 2-fold serially diluted in 23 wells in ribosome preparation buffer. A ribosome solution was prepared by adjusting the ribosome concentration to ~90% of the upper Kd plateau obtained for the cf-labeled peptide to be studied and added to each well (10 µL). […] The fluorescence polarization was measured on a PARADIGMTM microplate reader in the top read position (λexc = 485 nm, λem = 535 nm) in triplicate on at least two different days. […] Inhibition constants, Ki, were calculated as described by Mathias and Jung.

[5] = system: E. coli Rosetta DE3 pLysS; assay: MIC, liquid broth microdilution; assay type: cell-based, Escherichia coli; conditions: 25% MHBII medium, 7.5 × 10^6 CFU/mL, 37 °C, 20 ± 2 h, turbidity 600 nm, at least twice in triplicate
Description: as §2

[6] = cf-labeled peptides 23 µmol/L, normalized fluorescence after 180 min

Compound | Kd [1] [µM] | uptake in E. coli Rosetta compared with E. coli BW25113 ([2]; cf-labeled peptide 23 µmol/L, normalized fluorescence (OD600) after 180 min) | uptake in E. coli Rosetta compared with Api88 [2, 6] | uptake in E. coli Rosetta compared with Api137 [2, 6] | change of MIC after transformation of sbmA_A31G/G219T-harboring plasmid ([3]; compared with E. coli BW25113 ΔsbmA) | Ki [4] [µM] | MIC, Ros [5] [mg/L] | normalized uptake of E. coli Rosetta, in words ([2]; cf-labeled peptides 23 µmol/L, 0, 90, 180 min) | MIC, 25% MHBII ([3]; BW25113 ΔsbmA +psbmA_A31G/G219T, 25% MHBII containing IPTG (0.1 mmol/L)) [mg/L] | MIC, 33% TSB ([3]; BW25113 ΔsbmA +psbmA_A31G/G219T, 33% TSB containing IPTG (0.1 mmol/L)) [mg/L]
CC[C@H](C)[C@H](NC(=O)[C@@H]1CCCN1C(=O)[C@H](CCCNC(=N)N)NC(=O)[C@H](CC(N)=O)NC(=O)[C@H](CC(N)=O)NC(=O)CN)C(=O)N[C@@H](Cc1ccc(O)cc1)C(=O)N[C@H](C(=O)N1CCC[C@H]1C(=O)N[C@@H](CCCNC(=N)N)C(=O)N1CCC[C@H]1C(=O)N[C@@H](CCCNC(=N)N)C(=O)N1CCC[C@H]1C(=O)N1CCC[C@H]1C(=O)N[C@@H](Cc1c[nH]cn1)C(=O)N1CCC[C@H]1C(=O)N[C@@H](CCCNC(=N)N)C(=O)N1CCC[C@H]1C(=O)N[C@H](C(=O)N[C@@H](CCCNC(=N)N)C(=O)N[C@H](C(=O)O)C(C)C)[C@@H](C)CC)[C@@H](C)CC [Api805] (H-GNNRPIYIPRPRPPHPRPIRV-OH; N-terminus assumed) | 0.557 | approximately threefold higher | twofold higher | fivefold higher | not altered | 1.07 |  |  |  | 
CC[C@H](C)[C@H](NC(=O)[C@H](Cc1ccc(O)cc1)NC(=O)[C@@H](NC(=O)[C@@H]1CCCN1C(=O)[C@H](CCCNC(=N)N)NC(=O)[C@H](CC(N)=O)NC(=O)[C@H](CC(N)=O)NC(=O)[C@H](CCCN)N=C(N(C)C)N(C)C)C(C)C)C(=O)N1CCC[C@H]1C(=O)N[C@@H](CCCNC(=N)N)C(=O)N1CCC[C@H]1C(=O)N[C@@H](CCCNC(=N)N)C(=O)N1CCC[C@H]1C(=O)N1CCC[C@H]1C(=O)N[C@@H](Cc1c[nH]cn1)C(=O)N1CCC[C@H]1C(=O)N[C@@H](CCCNC(=N)N)C(=O)N[C@@H](CC(C)C)C(N)=O [Api88] ({Orn(α-tetramethylguanidino)}-NNRPVYIPRPRPPHPRL-NH2) | 0.906 |  |  | two- to threefold higher |  |  | 1 (≈ 0.437 µM) |  |  | 
CC[C@H](C)[C@H](NC(=O)[C@H](Cc1ccc(O)cc1)NC(=O)[C@@H](NC(=O)[C@@H]1CCCN1C(=O)[C@H](CCCNC(=N)N)NC(=O)[C@H](CC(N)=O)NC(=O)[C@H](CC(N)=O)NC(=O)[C@H](CCCN)N=C(N(C)C)N(C)C)C(C)C)C(=O)N1CCC[C@H]1C(=O)N[C@@H](CCCNC(=N)N)C(=O)N1CCC[C@H]1C(=O)N[C@@H](CCCNC(=N)N)C(=O)N1CCC[C@H]1C(=O)N1CCC[C@H]1C(=O)N[C@@H](Cc1c[nH]cn1)C(=O)N1CCC[C@H]1C(=O)N[C@@H](CCCNC(=N)N)C(=O)N[C@@H](CC(C)C)C(=O)O [Api137] ({Orn(α-tetramethylguanidino)}-NNRPVYIPRPRPPHPRL-OH) | 0.382 |  |  |  |  | 0.002 | 2 (≈ 0.873 µM) | lowest uptake | 2 (≈ 0.873 µM) | 8 (≈ 3.49 µM)
